Values joined by “and” are separate entries in the source; they are usually repeats but may differ in a detail not shown here. Equal entries are not always repeated. Where two headings read alike, the source gives them in different places.
Conditions: 1 mg single oral dose, fasting; for AUC0-∞: not corrected by dose/weight
Experimental: The data used in this work were obtained from four bioequivalence clinical trials conducted at the Clinical Trials Unit of the Hospital Universitario de La Princesa (UECHUP) (EUDRA-CT IDs: 2012-004433-17, 2013-002159-14, 2014-001123-77 and 2021-000315-23). […] The reference formulation (R) in all cases was Azilect® 1 mg tablets (TEVA Pharmaceuticals Europe B.V.), which was compared against different test formulations (T), all of them 1 mg tablets, except in clinical trial 3, whose test formulation was orodispersible 1 mg. The four bioequivalence trials had two periods and two sequences (TR and RT). In the first period, the volunteers randomly were administered one of the two formulations and, in the following period, after a 7-day washout period, the opposite formulation. All of them were reviewed and approved by Independent Ethics Board (IEB) of the Hospital Universitario de La Princesa, and by the Spanish Drug Agency (AEMPS). In addition, they were performed in accordance with the guidelines of the International Conference on Harmonization for Good Clinical Practice (ICH-GCP), current Spanish legislation and the Revised Declaration of Helsinki. The pharmacogenetic study (SFC-FG-2020-1) was likewise approved by the IEB of Hospital Universitario de La Princesa (registry number 4176, 9 July 2020).
In each period, the drug was administered under fasting conditions, which were maintained until 5 h after drug administration. Each subject provided 20 or 21 blood samples (depending on the clinical trial) that were extracted by BD Vacutainer® vacuum system with EDTA K2 tubes for analysis at different times between 0 h (before receiving the drug) and up to 12 h after drug intake. […] A high-performance liquid chromatography coupled to triple quadrupole mass spectrometry (HPLC-MS/MS) analytical method was used. The latter was validated according to European regulations for bioequivalence assessment, with a lower limit of quantification (LLOQ) of 10 pg/mL and a calibration range of 10–10,000 pg/mL.
Pharmacokinetic parameters were calculated with WinNonlin Professional (Scientific Consulting, Inc., Cary, NC, USA) following a non-compartmental model. The area under the curve (AUC0-t), was obtained by the trapezoidal method. The extrapolation to infinity (AUC0-∞) was determined by the sum of two partial AUCs: AUCt-∞ calculated by the ratio Ct/k, where Ct is the last detectable concentration and k the elimination slope; plus AUC0-t. Cmax and tmax were directly obtained from the plasma time-concentration curves. t1/2 was calculated as Ln2/k. Plasma clearance adjusted for bioavailability (Cl/F) was calculated as dose/AUC. Finally, the volume of distribution adjusted for bioavailability (Vd/F) was calculated by dividing Cl/F by k.
The SPSS software (v23.0, SPSS Inc., Chicago, IL, USA) was used for statistical analyses. AUC0-∞, and Cmax were divided by the dose/weight (DW) ratio to correct sex-related variability related to a varying weight. For the same purpose, Vd/F and Cl/F were divided by weight. With the purpose of normalizing their distributions, all pharmacokinetic parameters were logarithmically transformed for statistical analysis. Initially, a univariate analysis was conducted of the demographic characteristics according to sex and ethnicity, and of the pharmacokinetic parameters or ADR incidence based on sex, biogeographical group (hereinafter, “ethnicity”), genotypes and phenotypes. T-tests were used for the comparison of means for variables with two categories and ANOVA tests for variables with three or more categories, followed by a Bonferroni post-hoc. The Shapiro–Wilk test was used to address the normality of demographic characteristics. For those not following a normal distribution, the nonparametric Kruskal–Wallis test was used.

[1] = SLC22A1*3 (rs12208357) *1/*1, n=104
[2] = SLC22A1*3 (rs12208357) *1/*3, n=8
[3] = SLC22A1*5 (rs34059508) *1/*1, n=113
[4] = SLC22A1*5 (rs34059508) *1/*5, n=5
[5] = Total with CYP1A2 diplotype, n=115
[6] = the single volunteer with the ADR headache

tmax (CYP2C19 µM, n=3): 0.61 ± 0.35 h
AUC0-∞/DW (CYP2C19 IM, n=36): 258.70 ± 75.90 ng·kg·h/mL/mg
Cmax/DW (CYP2C19 IM, n=36): 415.50 ± 185.56 ng·kg/mL/mg
t1/2 (CYP2C19 IM, n=36): 2.85 ± 0.84 h
tmax (CYP2C19 IM, n=36): 0.46 ± 0.22 h
AUC0-∞/DW (CYP2C19 NM, n=56): 267.83 ± 70.38 ng·kg·h/mL/mg
Cmax/DW (CYP2C19 NM, n=56): 402.65 ± 142.62 ng·kg/mL/mg
t1/2 (CYP2C19 NM, n=56): 2.67 ± 0.91 h
tmax (CYP2C19 NM, n=56): 0.53 ± 0.27 h
AUC0-∞/DW (CYP2C19 PM, n=2): 302.71 ± 14.98 ng·kg·h/mL/mg
Cmax/DW (CYP2C19 PM, n=2): 412.92 ± 55.36 ng·kg/mL/mg
t1/2 (CYP2C19 PM, n=2): 1.55 ± 0.41 h
tmax (CYP2C19 PM, n=2): 0.75 ± 0.11 h
AUC0-∞/DW (CYP2C19 RM, n=21): 274.03 ± 86.22 ng·kg·h/mL/mg
Cmax/DW (CYP2C19 RM, n=21): 426.69 ± 180.45 ng·kg/mL/mg
t1/2 (CYP2C19 RM, n=21): 2.66 ± 0.85 h
tmax (CYP2C19 RM, n=21): 0.41 ± 0.11 h
AUC0-∞/DW (Caucasian, n=83): 258.45 ± 71.81 ng·kg·h/mL/mg
Cmax/DW (Caucasian, n=83): 418.18 ± 169.33 ng·kg/mL/mg
t1/2 (Caucasian, n=83): 2.56 ± 0.84 h
tmax (Caucasian, n=83): 0.47 ± 0.19 h
AUC0-∞/DW (Men, n=53): 278.61 ± 73.51 ng·kg·h/mL/mg
Cmax/DW (Men, n=53): 447.91 ± 163.88 ng·kg/mL/mg
t1/2 (Men, n=53): 2.31 ± 0.85 *^& h
tmax (Men, n=53): 0.52 ± 0.28 h
AUC0-∞/DW (Mixed ethnicity, n=35): 281.05 ± 80.09 ng·kg·h/mL/mg
Cmax/DW (Mixed ethnicity, n=35): 389.35 ± 147.25 ng·kg/mL/mg
t1/2 (Mixed ethnicity, n=35): 2.95 ± 0.94 h
tmax (Mixed ethnicity, n=35): 0.55 ± 0.31 h
AUC0-∞/DW (NAT2 RA, n=9): 230.53 ± 67.28 ng·kg·h/mL/mg
Cmax/DW (NAT2 RA, n=9): 315.46 ± 178.72 ng·kg/mL/mg
t1/2 (NAT2 RA, n=9): 2.72 ± 0.68 h
tmax (NAT2 RA, n=9): 0.50 ± 0.24 h
AUC0-∞/DW (NAT2 SA, n=103): 266.53 ± 75.05 ng·kg·h/mL/mg
t1/2 (NAT2 SA, n=103): 2.62 ± 0.83 h
tmax (NAT2 SA, n=103): 0.49 ± 0.24 h
AUC0-∞/DW [1]: 265.80 ± 73.86 ng·kg·h/mL/mg
Cmax/DW [1]: 401.10 ± 159.35 ng·kg/mL/mg
t1/2 [1]: 2.71 ± 0.89 h
tmax [1]: 0.51 ± 0.24 h
AUC0-∞/DW [2]: 258.87 ± 34.73 ng·kg·h/mL/mg
Cmax/DW [2]: 473.14 ± 99.07 ng·kg/mL/mg
t1/2 [2]: 2.22 ± 0.81 h
tmax [2]: 0.35 ± 0.11 (pu = 0.038 pm = 0.032) h
AUC0-∞/DW [3]: 267.52 ± 75.21 ng·kg·h/mL/mg
Cmax/DW [3]: 415.96 ± 161.85 ng·kg/mL/mg
t1/2 [3]: 2.70 ± 0.89 h
tmax [3]: 0.49 ± 0.23 h
AUC0-∞/DW [4]: 211.83 ± 36.15 ng·kg·h/mL/mg
t1/2 [4]: 2.24 ± 0.71 h
tmax [4]: 0.67 ± 0.24 (pu = 0.018) h
AUC0-∞/DW [5]: 265.29 ± 75.63 ng·kg·h/mL/mg
Cmax/DW [5]: 411.77 ± 164.35 ng·kg/mL/mg
t1/2 [5]: 2.66 ± 0.89 h
tmax [5]: 0.49 ± 0.24 h
AUC0-∞/DW (Total, n=118): 265.16 ± 74.74 ng·kg·h/mL/mg
t1/2 (Total, n=118): 2.68 ± 0.89 h
tmax (Total, n=118): 0.49 ± 0.24 h
AUC0-∞/DW (UGT1A6 rs7592281 G/G, n=111): 264.10 ± 73.64 ng·kg·h/mL/mg
Cmax/DW (UGT1A6 rs7592281 G/G, n=111): 409.07 ± 159.30 ng·kg/mL/mg
t1/2 (UGT1A6 rs7592281 G/G, n=111): 2.66 ± 0.89 h
tmax (UGT1A6 rs7592281 G/G, n=111): 0.48 ± 0.22 h
AUC0-∞/DW (UGT1A6 rs7592281 G/T, n=7): 281.88 ± 95.76 ng·kg·h/mL/mg
Cmax/DW (UGT1A6 rs7592281 G/T, n=7): 418.57 ± 229.87 ng·kg/mL/mg
t1/2 (UGT1A6 rs7592281 G/T, n=7): 3.03 ± 0.72 h
tmax (UGT1A6 rs7592281 G/T, n=7): 0.70 ± 0.32 (pu = 0.021, pm = 0.029) h
AUC0-∞/DW (Women, n=65): 254.19 ± 74.50 ng·kg·h/mL/mg
Cmax/DW (Women, n=65): 378.42 ± 156.70 ng·kg/mL/mg
t1/2 (Women, n=65): 2.98 ± 0.80 h
tmax (Women, n=65): 0.48 ± 0.19 h
AUC0-∞ (men): 3.71 ± 0.88 ng·h/mL
AUC0-∞/DW [6]: 197.49 ng·kg·h/mL/mg
Cmax/DW [6]: 339.71 ng·kg/mL/mg
AUC0-∞ (women): 4.29 ± 1.41 ng·h/mL
Compound: C#CCN[C@@H]1CCc2ccccc21 [rasagiline, Rasagiline]
Cmax/DW (NAT2 SA, n=103): 420.47 ± 161.94 (pu = 0.018, pm = 0.018) ng*kg/mL*mg
Cmax/DW [4]: 266.58 ± 130.60 (pu = 0.022, pm = 0.003) ng*kg/mL*mg
Cmax/DW (Total, n=118): 409.63 ± 163.00 ng·kg/mL/mg and 409.63 ± 163.01 ng·kg/mL/mg

Source: PMC9610285 (Pharmaceutics, 2022)
